Reference: ChEMBL document CHEMBL1145918, “Synthesis, comparative photosensitizing efficacy, human serum albumin (site II) binding ability, and intracellular localization characteristics of novel benzobacteriochlorins derived from vic-dihydroxybacteriochlorins” (J Med Chem, 2003)

What follows are compounds tested against Albumin (Homo sapiens, UniProt P02768) (assay: Compound was tested for its binding ability to site II of Human serum albumin (HSA) expressed as binding constant).
Sequence of Albumin (P02768 whole entry): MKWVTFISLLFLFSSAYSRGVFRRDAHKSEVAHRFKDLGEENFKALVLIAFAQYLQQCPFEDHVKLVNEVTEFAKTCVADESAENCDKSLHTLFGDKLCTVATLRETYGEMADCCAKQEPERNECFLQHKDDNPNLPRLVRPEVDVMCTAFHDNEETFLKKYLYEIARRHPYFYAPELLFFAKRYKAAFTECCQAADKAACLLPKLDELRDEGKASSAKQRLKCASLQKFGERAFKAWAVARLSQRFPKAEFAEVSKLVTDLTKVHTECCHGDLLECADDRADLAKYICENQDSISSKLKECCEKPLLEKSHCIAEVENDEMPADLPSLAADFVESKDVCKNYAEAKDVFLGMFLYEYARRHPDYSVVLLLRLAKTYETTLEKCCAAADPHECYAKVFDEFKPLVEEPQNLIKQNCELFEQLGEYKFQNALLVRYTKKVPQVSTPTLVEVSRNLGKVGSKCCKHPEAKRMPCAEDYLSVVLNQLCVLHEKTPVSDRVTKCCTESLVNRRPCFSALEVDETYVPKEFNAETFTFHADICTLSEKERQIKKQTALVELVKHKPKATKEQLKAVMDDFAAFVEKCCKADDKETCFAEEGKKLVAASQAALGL
For `CCc1c(C)c2cc3nc(c(C(=O)OC)c4nc(cc5[nH]c(cc1[nH]2)C1(C)C5=CC=C(C(=O)OC)C1C(=O)OC)C(C)=C4C(=O)OC)[C@@H](CCC(=O)OC)[C@@H]3C` (stereo not given in full), the K was 14400000 M⁻¹. With `CCc1c(C)c2cc3nc(c4c5nc(cc6[nH]c(cc1[nH]2)C1(C)C6=CC=C(C(=O)OC)C1C(=O)OC)C(C)=C5C(=O)C4)[C@@H](CCC(=O)OC)[C@@H]3C` (stereo not given in full) the K was 10600000 M⁻¹. For `CCCCCCN1C(=O)C2=C(C)c3cc4[nH]c(cc5[nH]c(cc6nc(c(c2n3)C1=O)[C@@H](CCC(=O)OC)[C@@H]6C)c(C)c5CC)C1(C)C4=CC=C(C(=O)OC)C1C(=O)OC` (stereo not given in full), the K was 16100000 M⁻¹. In the case of `CCc1c(C)c2cc3nc(c4c5nc(cc6[nH]c(cc1[nH]2)C1(C)C6=CC=C(C(=O)OC)C1C(=O)OC)C(C)=C5C(=O)N(Cc1cc(C(F)(F)F)cc(C(F)(F)F)c1)C4=O)[C@@H](CCC(=O)OC)[C@@H]3C` (stereo not given in full), the K is reported as 16000000 M⁻¹. `CCc1c(C)c2cc3nc(c(CC(=O)OC)c4nc(cc5[nH]c(cc1[nH]2)C1(C)C5=CC=C(C(=O)OC)C1C(=O)OC)C(C)=C4C(=O)OC)[C@@H](CCC(=O)OC)[C@@H]3C` (stereo not given in full) was tested, and the K was 17500000 M⁻¹.
